Experimental data published in PMC13095408, “DBeQ derivative targets vacuolar protein sorting 4 functions in cancer cells and suppresses tumor growth in mice” (The Journal of Pharmacology and Experimental Therapeutics, 2025).
Converted amounts (≈) assume the structure as drawn.

Legend:
recombinant human VCP [1] = molecular target: T1, recombinant human VCP (Rattus norvegicus, UniProt P46462); test: VCP ATPase activity, EnzChek Phosphate assay; format: biochemical
T1 construct: His (N); host or cells: Escherichia coli BL21(DE3)
T1 sequence (P46462 2-806 limits assumed): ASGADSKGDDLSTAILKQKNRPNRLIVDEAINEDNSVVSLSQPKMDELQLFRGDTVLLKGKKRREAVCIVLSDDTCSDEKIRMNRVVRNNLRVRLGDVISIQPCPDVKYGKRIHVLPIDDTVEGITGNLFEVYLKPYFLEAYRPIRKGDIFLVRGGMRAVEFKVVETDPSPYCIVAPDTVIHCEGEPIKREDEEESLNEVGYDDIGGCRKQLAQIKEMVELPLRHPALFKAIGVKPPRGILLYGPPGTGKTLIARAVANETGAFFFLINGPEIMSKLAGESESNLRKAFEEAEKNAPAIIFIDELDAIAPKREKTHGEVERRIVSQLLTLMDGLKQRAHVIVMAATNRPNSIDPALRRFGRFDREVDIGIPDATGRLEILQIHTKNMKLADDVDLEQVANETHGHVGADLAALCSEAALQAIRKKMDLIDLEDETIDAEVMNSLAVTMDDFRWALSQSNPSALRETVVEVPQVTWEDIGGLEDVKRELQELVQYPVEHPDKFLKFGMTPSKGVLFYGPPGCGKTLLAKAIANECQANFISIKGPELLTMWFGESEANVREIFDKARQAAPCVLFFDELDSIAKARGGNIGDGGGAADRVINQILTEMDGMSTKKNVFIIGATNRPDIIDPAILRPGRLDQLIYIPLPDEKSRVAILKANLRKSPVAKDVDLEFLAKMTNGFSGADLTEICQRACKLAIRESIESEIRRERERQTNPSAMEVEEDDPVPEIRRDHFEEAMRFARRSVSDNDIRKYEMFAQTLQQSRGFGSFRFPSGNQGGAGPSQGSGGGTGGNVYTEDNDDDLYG
Procedure: (§1) VPS4B and VCP ATPase activities were measured using the EnzChek Phosphate assay for the quantification of released phosphate. Assay buffers were based on literature precedents ([Cupido et al, 2019], [2021]) as follows: VPS4B buffer (20 mM HEPES-KOH, pH 7.4, 25 mM KOAc, 2 mM MgCl2, 5 mM (NH4)2SO4, 0.5 mM CaCl2, 2.5 mM DTT, 0.1 mg/mL BSA, 0.005% v/v Triton X-100), VCP buffer (20 mM HEPES-NaOH, pH 7.4, 20 mM NaCl, 10 mM MgCl2, 5 mM (NH4)2SO4, 0.5 mM CaCl2, 2.5 mM DTT, 0.1 mg/mL BSA, 0.005% v/v Triton X-100). In black clear-bottom 384-well plates, 22.5 μL of 5% DMSO or 40× test compounds diluted in the respective assay buffer was added to each well. ATPases were diluted to 1 μM in the respective buffers containing 2× EnzChek Phosphate assay coupling reagents of 400 μM MESG and 2 U of PNP, then 25 μL was added to each well. Plates were mixed at 1000 rpm for 30 minutes at RT while being protected from light. The reaction was initiated by adding 2.5 μL of 20 mM MgATP or water followed by mixing at 1200 rpm for 30 seconds at RT. Plates were measured at 360 nm using a CLARIOstar plate reader (BMG LABTECH) for 20 minutes at 37 °C. ATPase activity was calculated as the amount of phosphate released over a 5-minute interval under linear initial velocity conditions. The remaining ATPase activity was calculated by normalizing compound-treated activity values to the DMSO control. IC50 was calculated by fitting normalized values to a sigmoidal dose-response curve with Hill slope = −1 using Graph Pad Prism 10.0.
(§2) To identify VPS4i, we developed enzyme- and cell-based VPS4 functional assays to serve as VPS4i-screening platforms. For the enzyme-based assay, we used the colorimetric EnzChek Phosphate assay that detects free phosphate with the advantage of continuous measurement of ATP hydrolysis over time. […] Due to the high sequence and structural similarity of AAA-ATPases, we also established a VCP ATPase assay to evaluate hit selectivity. […] For the cell-based assay, our approach was based on how VPS4 inhibition causes the accumulation of ESCRT-III ([Babst et al, 1998]; [Katoh et al, 2003]). We used an N-terminal GFP-tagged CHMP4B reporter system because it is the most abundant ESCRT-III subunit ([Katoh et al, 2004]; [Teis et al, 2008]). Our aim was to test compounds under short-term serum and amino acid starvation to stimulate ESCRT activity for easier detection of inhibitors ([Takahashi et al, 2018], [2019]). […] Overall, we established 2 systems for VPS4i screening, a VPS4B ATPase activity assay and a GFP-CHMP4B accumulation cell-based assay.

recombinant human VCP [2] = molecular target: T2, recombinant human VCP; test: VCP ATPase activity, EnzChek Phosphate assay; format: biochemical; settings: 0.5 μM enzyme
T2 construct: His (N); host or cells: Escherichia coli BL21(DE3)
T2 sequence (P46462 2-806 limits assumed): as above
Procedure: as §1, §2

[3] = Escalating dose MTD study; format: in vivo; settings: daily doses increasing 50% each day from 5 mg/kg, B6 mice
Procedure: (§3) All animal studies were performed in accordance with the guidelines of the Institutional Animal Care and Use Committee at the Penn State College of Medicine (IACUC # PRAMS201145989). To determine the maximum tolerated dose (MTD) of 4-107, escalating and acute dose studies were performed. The escalating MTD study used an intra-animal design where each mouse received daily doses of 4-107 that increased 50% each day from a starting dose of 5 mg/kg. Six female C57BL/6J (B6) (The Jackson Laboratory; 000664) were administered 4-107 either orally via oral gavage or via intraperitoneal injection with 3 mice per group. The acute MTD study had groups of mice receive daily consistent doses of 4-107 i.p. Here, B6 mice were administered 4-107 at either 5 (n = 4; 2 males [M], 2 females [F]), 10 (n = 4; 2 M, 2 F), 15 (n = 5; all M), or 20 mg/kg (n = 5; all M). In both studies, 4-107 dissolved in DMSO was mixed into 30% propylene glycol, 5% Tween 80, and 65% of 5% dextrose in water (PTD [vehicle]) with a final DMSO concentration of ≤ 3%. […] BCS was determined by posture and prominence of skeletal features upon visual inspection and palpation, where BCS < 2 indicated a hunched posture and emaciation. […] The MTD was determined as the highest dose of 4-107 administered without mice reaching the toxicity endpoints.

9464D s.c. tumors = test: 9464D syngeneic mouse model of neuroblastoma; format: in vivo; settings: 5 mg/kg/day, i.p.
Procedure: To establish a syngeneic tumor mouse model, 9464D cells were resuspended in 50% Matrigel Matrix in 1× PBS at a concentration of […] and a total of 0.1 mL of this mixture (1 × 10^6 cells) was subcutaneously injected into the flank of each of the 6 to 8-week-old B6 mice (n = 19; 12 M, 7 F). Fourteen days after engraftment, mice began daily intraperitoneal administration of either vehicle (n = 9; 6 M, 3 F) or 5 mg/kg 4-107 (n = 10; 6 M, 4 F). Mouse tumor volume was measured weekly, then every 1–3 days once vehicle-treated tumors reached 1000–2000 mm^3. Tumor volume was calculated as πLW^2/6 using length (L) and width (W) caliper measurements. Mouse body weight was measured daily. Humane endpoints were defined as tumor volume reaching 4000 mm^3 or mice reaching the aforementioned toxicity endpoints, at which point the affected mice were euthanized. The experimental endpoint was determined as the time when the majority of tumors from the control group reached 4000 mm^3.

Thermodynamic solubility = format: physicochemical; settings: FaSSIF-V2 buffer, thermodynamic from solid; In FaSSIF-V2, pH 6.5
Acute dose MTD study = settings: both sexes, C57BL/6J, mouse, in vivo, ip, fixed daily doses 5, 10, 15, 20 mg/kg, B6 mice; read-out: acute dose MTD (tolerated dose)
Procedure: as §3

[4] = Human plasma protein binding; format: in vitro ADME; settings: 5 μM of compound
Procedure: All in vitro absorption, distribution, metabolism, and excretion (ADME) studies were conducted by BioDuro-Sundia. […] Caco-2 permeability, human liver microsomal stability, and human plasma protein binding assays as well as liquid chromatography-mass spectrometry/mass spectrometry analyses were performed following standard protocols previously described in detail ([Kazakova et al, 2023]).

## COc1cccc2c(NCc3ccccc3)nc(NCc3ccccc3)nc12 [Compound 4-107, N^2,N^4-dibenzyl-8-methoxyquinazoline-2,4-diamine]
Recombinant human VCP [1]; remaining ATPase activity, screened at 5 μM, mean ± SD, Table 2
  VCP ATPase (% DMSO): 68.48 ± 2.85 % DMSO
Recombinant human VCP [1]; screened at 5 µM, mean ± S.D., Supplemental Table 2
  VCP ATPase (% DMSO): 68.48 ± 2.02 % DMSO
Recombinant human VCP [2]
  IC50: 8.6 ± 3.9 µM
[3]; i.p.
  doses exhibiting toxicity, intraperitoneal route: above 25 mg/kg
[3]; oral gavage, doses up to
  well tolerated dose, oral route: approximately 90 mg/kg
9464D s.c. tumors; from day 14 after engraftment, B6 mice
  tumor growth: significantly reduced tumor growth
9464D s.c. tumors; tumor-bearing B6 mice
  mice that tolerated treatment: 7 of 10
Thermodynamic solubility
  solubility thermodynamic at 16 h: 17 µM (≈ 6.3 µg/mL)
Acute dose MTD study
  MTD: 5 mg/kg
[4]
  fraction unbound at 5 μM: 0.0007
